In ChEMBL document CHEMBL5465560, “Selectivity Literature for EUbOPEN Chemogenomic Library” (2024):

Columns and labels:
[1] = target: T1, Serine/threonine-protein kinase Nek2 (Homo sapiens) (UniProt P51955); assay: Selectivity interaction (Kinase panel (literature)) EUB0001199aCl NEK2; settings: at 1 µM
T1 sequence (whole entry): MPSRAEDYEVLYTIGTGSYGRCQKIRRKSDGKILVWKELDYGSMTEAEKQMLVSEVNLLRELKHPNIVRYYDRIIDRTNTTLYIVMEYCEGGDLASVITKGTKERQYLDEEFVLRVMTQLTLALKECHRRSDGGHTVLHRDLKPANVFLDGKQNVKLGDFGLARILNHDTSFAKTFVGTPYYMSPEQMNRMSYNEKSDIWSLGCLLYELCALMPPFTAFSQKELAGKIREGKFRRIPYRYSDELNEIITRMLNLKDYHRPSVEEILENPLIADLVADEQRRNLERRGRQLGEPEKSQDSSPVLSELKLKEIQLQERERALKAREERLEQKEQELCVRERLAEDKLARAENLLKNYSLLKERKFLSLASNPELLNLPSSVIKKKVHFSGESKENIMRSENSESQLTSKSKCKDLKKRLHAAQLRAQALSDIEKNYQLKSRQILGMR

[2] = target: Ribosomal protein S6 kinase beta-1 (Homo sapiens, UniProt P23443); assay: Selectivity interaction (KinomeScan (DiscoverX)) EUB0000666a RPS6KB1; settings: at 10 µM
[3] = target: T2, Serine/threonine-protein kinase D2 (Homo sapiens) (UniProt Q9BZL6); assay: Selectivity interaction (Kinase screening (Nanosyn)) EUB0000604a PRKD2
T2 sequence (whole entry): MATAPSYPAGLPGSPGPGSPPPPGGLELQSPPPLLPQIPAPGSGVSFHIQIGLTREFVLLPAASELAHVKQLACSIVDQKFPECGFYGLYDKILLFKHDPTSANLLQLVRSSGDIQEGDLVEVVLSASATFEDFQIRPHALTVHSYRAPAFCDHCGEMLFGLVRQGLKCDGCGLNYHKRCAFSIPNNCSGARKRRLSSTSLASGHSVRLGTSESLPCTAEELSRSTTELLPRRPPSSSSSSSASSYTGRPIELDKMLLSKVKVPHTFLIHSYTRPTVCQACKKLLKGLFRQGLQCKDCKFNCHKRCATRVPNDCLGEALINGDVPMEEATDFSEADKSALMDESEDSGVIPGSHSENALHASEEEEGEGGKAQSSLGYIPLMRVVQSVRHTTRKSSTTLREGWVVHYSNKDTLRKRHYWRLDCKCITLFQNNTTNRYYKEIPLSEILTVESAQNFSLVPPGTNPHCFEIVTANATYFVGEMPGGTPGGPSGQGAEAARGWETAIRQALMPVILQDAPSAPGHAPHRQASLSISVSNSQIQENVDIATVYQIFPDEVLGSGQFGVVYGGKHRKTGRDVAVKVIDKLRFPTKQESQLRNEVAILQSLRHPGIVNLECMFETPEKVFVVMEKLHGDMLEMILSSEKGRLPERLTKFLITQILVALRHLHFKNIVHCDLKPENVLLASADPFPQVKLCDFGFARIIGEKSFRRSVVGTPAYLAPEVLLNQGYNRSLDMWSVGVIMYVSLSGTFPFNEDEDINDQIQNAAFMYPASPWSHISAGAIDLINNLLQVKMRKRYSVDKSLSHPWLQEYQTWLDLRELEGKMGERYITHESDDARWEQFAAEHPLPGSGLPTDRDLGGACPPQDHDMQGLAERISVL

[4] = target: Homeodomain-interacting protein kinase 3 (Homo sapiens, UniProt Q9H422); assay: Selectivity interaction (KinomeScan (DiscoverX)) EUB0000655a HIPK3; settings: at 10 µM
[5] = target: T3, Mitogen-activated protein kinase kinase kinase kinase 3 (Homo sapiens) (UniProt Q8IVH8); assay: Selectivity interaction (KinomeScan (DiscoverX)) EUB0000607a MAP4K3; settings: at 10 µM
T3 sequence (whole entry): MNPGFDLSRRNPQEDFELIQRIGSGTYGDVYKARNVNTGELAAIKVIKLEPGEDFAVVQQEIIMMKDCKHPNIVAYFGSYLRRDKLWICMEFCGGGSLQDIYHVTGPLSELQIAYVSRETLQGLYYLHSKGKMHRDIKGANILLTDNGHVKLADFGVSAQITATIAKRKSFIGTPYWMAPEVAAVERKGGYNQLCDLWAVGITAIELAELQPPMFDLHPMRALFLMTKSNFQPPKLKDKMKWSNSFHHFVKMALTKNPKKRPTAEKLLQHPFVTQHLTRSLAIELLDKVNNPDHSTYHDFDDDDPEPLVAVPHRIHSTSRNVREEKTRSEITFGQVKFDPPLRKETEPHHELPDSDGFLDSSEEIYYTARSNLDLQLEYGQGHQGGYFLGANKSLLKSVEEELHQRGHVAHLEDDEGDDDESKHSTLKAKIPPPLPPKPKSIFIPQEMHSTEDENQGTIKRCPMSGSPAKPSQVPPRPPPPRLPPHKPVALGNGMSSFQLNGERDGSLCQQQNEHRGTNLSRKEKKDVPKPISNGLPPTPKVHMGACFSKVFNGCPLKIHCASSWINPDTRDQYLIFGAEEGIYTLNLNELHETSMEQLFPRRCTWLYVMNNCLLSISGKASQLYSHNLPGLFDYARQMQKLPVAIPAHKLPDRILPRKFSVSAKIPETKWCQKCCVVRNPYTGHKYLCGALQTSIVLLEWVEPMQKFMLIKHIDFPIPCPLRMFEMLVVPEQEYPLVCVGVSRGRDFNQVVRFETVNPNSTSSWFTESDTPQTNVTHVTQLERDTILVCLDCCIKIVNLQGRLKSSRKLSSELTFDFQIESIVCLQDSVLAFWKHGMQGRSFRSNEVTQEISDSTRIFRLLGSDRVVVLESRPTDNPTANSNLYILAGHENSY

Sequence of Homeodomain-interacting protein kinase 3 (Q9H422 whole entry, looked up): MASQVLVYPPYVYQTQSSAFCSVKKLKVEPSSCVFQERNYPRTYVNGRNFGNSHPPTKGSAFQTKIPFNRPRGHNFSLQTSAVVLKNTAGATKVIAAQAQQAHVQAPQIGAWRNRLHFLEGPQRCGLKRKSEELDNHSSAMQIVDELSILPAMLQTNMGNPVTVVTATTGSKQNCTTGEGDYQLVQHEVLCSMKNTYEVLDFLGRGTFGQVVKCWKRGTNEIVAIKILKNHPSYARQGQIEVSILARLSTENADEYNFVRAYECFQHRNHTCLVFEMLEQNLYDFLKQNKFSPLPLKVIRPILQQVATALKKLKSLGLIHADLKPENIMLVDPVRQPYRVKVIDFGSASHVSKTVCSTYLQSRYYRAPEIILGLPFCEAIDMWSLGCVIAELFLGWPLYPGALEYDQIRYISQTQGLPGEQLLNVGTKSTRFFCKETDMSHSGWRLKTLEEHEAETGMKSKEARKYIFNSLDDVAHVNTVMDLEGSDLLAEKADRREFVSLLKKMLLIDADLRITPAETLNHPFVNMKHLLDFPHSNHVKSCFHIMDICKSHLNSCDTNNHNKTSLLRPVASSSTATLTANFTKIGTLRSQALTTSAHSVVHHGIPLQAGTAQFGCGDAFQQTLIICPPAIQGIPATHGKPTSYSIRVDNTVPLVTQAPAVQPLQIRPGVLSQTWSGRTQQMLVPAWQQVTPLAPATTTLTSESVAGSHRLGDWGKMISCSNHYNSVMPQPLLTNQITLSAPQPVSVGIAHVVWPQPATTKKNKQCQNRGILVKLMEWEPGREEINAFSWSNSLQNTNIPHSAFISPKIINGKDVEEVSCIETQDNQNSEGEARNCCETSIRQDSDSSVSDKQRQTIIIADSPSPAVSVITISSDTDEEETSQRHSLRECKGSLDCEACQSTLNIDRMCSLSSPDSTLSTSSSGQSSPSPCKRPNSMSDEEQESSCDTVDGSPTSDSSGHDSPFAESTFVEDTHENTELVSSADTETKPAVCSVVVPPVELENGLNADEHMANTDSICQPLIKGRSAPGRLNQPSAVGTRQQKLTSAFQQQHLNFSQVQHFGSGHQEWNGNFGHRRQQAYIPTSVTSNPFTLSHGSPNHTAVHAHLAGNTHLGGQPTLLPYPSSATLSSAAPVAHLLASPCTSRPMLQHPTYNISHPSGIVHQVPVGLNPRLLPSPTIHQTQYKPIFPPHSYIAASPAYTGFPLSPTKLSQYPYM
Sequence of Ribosomal protein S6 kinase beta-1 (P23443 whole entry, looked up): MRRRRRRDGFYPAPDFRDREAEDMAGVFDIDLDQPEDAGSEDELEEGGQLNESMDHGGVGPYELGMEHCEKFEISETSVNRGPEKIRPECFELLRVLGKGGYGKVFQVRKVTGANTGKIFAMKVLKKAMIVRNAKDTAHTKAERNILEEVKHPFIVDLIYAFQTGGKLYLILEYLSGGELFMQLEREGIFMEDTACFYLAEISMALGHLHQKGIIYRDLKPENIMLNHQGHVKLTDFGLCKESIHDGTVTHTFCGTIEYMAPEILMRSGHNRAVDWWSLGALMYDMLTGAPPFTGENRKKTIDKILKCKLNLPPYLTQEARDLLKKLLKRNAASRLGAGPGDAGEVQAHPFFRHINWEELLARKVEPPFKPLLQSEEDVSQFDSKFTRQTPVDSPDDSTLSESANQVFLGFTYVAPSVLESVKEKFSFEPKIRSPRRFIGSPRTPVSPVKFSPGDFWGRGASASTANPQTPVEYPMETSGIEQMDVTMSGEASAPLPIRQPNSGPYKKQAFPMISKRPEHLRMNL

`CN1Cc2nccc(-c3cn(C)nc3-c3ccc(F)cc3)c2C1=O` showed a % of inhibition [1] of 4%.

Compound `O=C(NOC[C@H](O)CO)c1ccc(F)c(F)c1Nc1ccc(I)cc1F` has a % of control [2] of 100%.

`Cc1cnc(Nc2ccc(F)cc2Cl)nc1-c1c[nH]c(C(=O)N[C@H](CO)c2cccc(Cl)c2)c1` gave a % of inhibition [3] of 50%.

`CN(C)CCOc1ccc(-c2nc(-c3ccncc3)c(-c3ccc4c(c3)CC/C4=N\O)[nH]2)cc1` showed a % of control [4] of 62%.

For `CNC(=O)Nc1ccc(-c2nc(N3CC4CCC(C3)O4)c3cnn(C4CCC5(CC4)OCCO5)c3n2)cc1`, the % of control [5] was 94%.
